Measurements published in article PMC6921407, “Novel coumarins active against Trypanosoma cruzi and toxicity assessment using the animal model Caenorhabditis elegans” (BMC Pharmacology & Toxicology, 2019).

Tested on: not given
Experiment: not given
Conditions: not given

| melting point | Compound |
| --- | --- |
| 187 to 188 °C | O=c1cc(CNc2ccccc2)c2cc(Cl)ccc2o1 [9a] |
| 201 °C | Cc1ccc(NCc2cc(=O)oc3ccc(Cl)cc23)cc1 [9b] |
| 205 to 207 °C | O=c1cc(CNc2ccc(Cl)cc2)c2cc(Cl)ccc2o1 [9c] |
| 231 to 232 °C | O=c1cc(CNc2ccc(Br)cc2)c2cc(Cl)ccc2o1 [9d] |
| 192 to 194 °C | COc1ccc(NCc2cc(=O)oc3ccc(Cl)cc23)cc1 [9e] |
| 192 to 194 °C | Cc1cc(C)cc(NCc2cc(=O)oc3ccc(Cl)cc23)c1 [9f] |
| 200 to 201 °C | CN(Cc1cc(=O)oc2ccc(Cl)cc12)c1ccccc1 [9g] |
| 185 to 186 °C | CN(Cc1cc(=O)oc2ccc(Cl)cc12)c1ccc(Cl)cc1 [9h] |
| 181 to 182 °C | O=c1cc(CN2CCCCC2)c2cc(Cl)ccc2o1 [9i] |
| 177 to 178 °C | O=c1cc(CN2CCOCC2)c2cc(Cl)ccc2o1 [9k] |
| 152 to 153 °C | O=c1cc(CN2CCSCC2)c2cc(Cl)ccc2o1 [9l] |
| 162 to 164 °C | O=c1cc(CN2CCS(=O)(=O)CC2)c2cc(Cl)ccc2o1 [9m] |
| 163 to 164 °C | O=c1cc(CN2CCC(c3ccccc3)CC2)c2cc(Cl)ccc2o1 [9n] |
| 164 to 165 °C | Cc1ccc2oc(=O)cc(CNc3ccccc3)c2c1 [10a] |
| 188 to 189 °C | Cc1ccc(NCc2cc(=O)oc3ccc(C)cc23)cc1 [10b] |
| 180 to 181 °C | Cc1ccc2oc(=O)cc(CNc3ccc(Cl)cc3)c2c1 [10c] |
| 178 to 179 °C | Cc1ccc2oc(=O)cc(CNc3ccc(Br)cc3)c2c1 [10d] |
| 169 to 170 °C | COc1ccc(NCc2cc(=O)oc3ccc(C)cc23)cc1 [10e] |
| 179 to 180 °C | Cc1cc(C)cc(NCc2cc(=O)oc3ccc(C)cc23)c1 [10f] |

| Compound | melting point |
| --- | --- |
| O=c1cc(CN2CCNCC2)c2cc(Cl)ccc2o1 [9j] | > 300 °C |

Tested on: Trypanosoma cruzi epimastigotes (Tulahuen 2 strain)
Experiment: Anti-Trypanosoma cruzi activity: growth inhibition of epimastigotes (absorbance at 600 nm, day 5)
Format: cell-based
Conditions: T. cruzi epimastigotes, read-out: IC50
Protocol: Trypanosoma cruzi epimastigotes (Tulahuen 2 strain) were grown at 28 °C in an axenic milieu (BHI-Tryptose) supplemented with 5% fetal bovine serum (FBS), as previously described. Cells from a 10-day-old culture (stationary phase) were inoculated into 50 mL of fresh culture milieu to give an initial concentration of 1 × 10^6 cells per mL. Cell growth was followed by measuring the absorbance of the culture at 600 nm every day. Before inoculation, the milieu was supplemented with a given amount of the coumarin from a freshly prepared stock solution in DMSO (25 mM). The final concentration of DMSO in the culture medium never exceeded 0.4%, and the control was run in the presence of 0.4% DMSO and in the absence of drugs. […] Nifurtimox (Nfx) was used as the reference trypanocidal drug. The percentage of growth inhibition (PGI) was calculated as follows: PGI (%) = {1 - [(Ap - A0p) / (Ac - A0c)]} × 100, where Ap = […] of the culture containing the studied compound at day 5; […] = […] of the culture containing the studied compound just after addition of the inocula (day 0); Ac = […] of the culture in the absence of the studied compound (control) at day 5; […] = […] in the absence of the studied compound at day 0. […] At day 5, the absorbance of the culture was measured and related to the control.

| IC50 | Compound |
| --- | --- |
| < 10 µM | O=c1cc(CNc2ccccc2)c2cc(Cl)ccc2o1 [9a] |

Same assay, conditions: T. cruzi epimastigotes, test concentration not given

| Compound | GI (%) / percentage of growth inhibition (PGI) |
| --- | --- |
| Cc1ccc(NCc2cc(=O)oc3ccc(Cl)cc23)cc1 [9b] | < 20.7% |
| O=c1cc(CNc2ccc(Cl)cc2)c2cc(Cl)ccc2o1 [9c] | < 20.4% |
| O=c1cc(CNc2ccc(Br)cc2)c2cc(Cl)ccc2o1 [9d] | 1.9 ± 0.8% |
| COc1ccc(NCc2cc(=O)oc3ccc(Cl)cc23)cc1 [9e] | < 29.3% |
| Cc1cc(C)cc(NCc2cc(=O)oc3ccc(Cl)cc23)c1 [9f] | 6.1 ± 1.3% |
| CN(Cc1cc(=O)oc2ccc(Cl)cc12)c1ccc(Cl)cc1 [9h] | < 48.4% |
| O=c1cc(CN2CCCCC2)c2cc(Cl)ccc2o1 [9i] | 15.9 ± 0.9% |
| O=c1cc(CN2CCNCC2)c2cc(Cl)ccc2o1 [9j] | < 23.6% |
| O=c1cc(CN2CCOCC2)c2cc(Cl)ccc2o1 [9k] | < 9.6% |
| O=c1cc(CN2CCSCC2)c2cc(Cl)ccc2o1 [9l] | 29 ± 0.4% |
| O=c1cc(CN2CCS(=O)(=O)CC2)c2cc(Cl)ccc2o1 [9m] | < 59.9% |
| O=c1cc(CN2CCC(c3ccccc3)CC2)c2cc(Cl)ccc2o1 [9n] | < 51.5% |
| Cc1ccc2oc(=O)cc(CNc3ccccc3)c2c1 [10a] | 38.5 ± 2.6% |
| Cc1ccc(NCc2cc(=O)oc3ccc(C)cc23)cc1 [10b] | 29.9 ± 0.9% |
| Cc1ccc2oc(=O)cc(CNc3ccc(Cl)cc3)c2c1 [10c] | 18.5 ± 1.8% |
| Cc1ccc2oc(=O)cc(CNc3ccc(Br)cc3)c2c1 [10d] | < 33.1% |
| COc1ccc(NCc2cc(=O)oc3ccc(C)cc23)cc1 [10e] | 53.2 ± 1.3% |
| Cc1cc(C)cc(NCc2cc(=O)oc3ccc(C)cc23)c1 [10f] | 32.5 ± 0.9% |

Same assay, conditions: Trypanosoma cruzi, TULAHUEN, 120 h, T. cruzi epimastigotes, read-out: IC50

| IC50 | Compound |
| --- | --- |
| 9.1 ± 1.6 µM | O=c1cc(CNc2ccccc2)c2cc(Cl)ccc2o1 [9a] |
| > 100 µM | Cc1ccc(NCc2cc(=O)oc3ccc(Cl)cc23)cc1 [9b] |
| > 100 µM | O=c1cc(CNc2ccc(Cl)cc2)c2cc(Cl)ccc2o1 [9c] |
| > 100 µM | O=c1cc(CNc2ccc(Br)cc2)c2cc(Cl)ccc2o1 [9d] |
| > 100 µM | COc1ccc(NCc2cc(=O)oc3ccc(Cl)cc23)cc1 [9e] |
| > 100 µM | Cc1cc(C)cc(NCc2cc(=O)oc3ccc(Cl)cc23)c1 [9f] |
| 14.2 ± 1.9 µM | CN(Cc1cc(=O)oc2ccc(Cl)cc12)c1ccccc1 [9g] |
| > 25 µM | CN(Cc1cc(=O)oc2ccc(Cl)cc12)c1ccc(Cl)cc1 [9h] |
| > 100 µM | O=c1cc(CN2CCCCC2)c2cc(Cl)ccc2o1 [9i] |
| > 100 µM | O=c1cc(CN2CCOCC2)c2cc(Cl)ccc2o1 [9k] |
| > 100 µM | O=c1cc(CN2CCSCC2)c2cc(Cl)ccc2o1 [9l] |
| > 25 µM | O=c1cc(CN2CCS(=O)(=O)CC2)c2cc(Cl)ccc2o1 [9m] |
| > 25 µM | O=c1cc(CN2CCC(c3ccccc3)CC2)c2cc(Cl)ccc2o1 [9n] |
| > 100 µM | Cc1ccc2oc(=O)cc(CNc3ccccc3)c2c1 [10a] |
| > 100 µM | Cc1ccc(NCc2cc(=O)oc3ccc(C)cc23)cc1 [10b] |
| > 100 µM | Cc1ccc2oc(=O)cc(CNc3ccc(Cl)cc3)c2c1 [10c] |
| > 100 µM | Cc1ccc2oc(=O)cc(CNc3ccc(Br)cc3)c2c1 [10d] |
| > 25 µM | COc1ccc(NCc2cc(=O)oc3ccc(C)cc23)cc1 [10e] |
| > 100 µM | Cc1cc(C)cc(NCc2cc(=O)oc3ccc(C)cc23)c1 [10f] |

| Compound | IC50 |
| --- | --- |
| O=c1cc(CN2CCNCC2)c2cc(Cl)ccc2o1 [9j] | > 31 µM |
